Where two headings read alike, the source gives them in different places.

Data set [1] in a line: Concentrations of BRL44385 and its prodrugs detected in the blood of mice after oral administration (Table 1). Format: in vivo, female Balb/c mice. The conditions noted are these: mouse, 200 umol/kg, total 9-alkoxypurines, 0.2 mmol/kg oral gavage. The procedure: |Concentrations of BRL44385 and its Prodrugs Detected in the |Blood of Mice after Oral Administration of |9-(Alkoxymethoxypropoxy)purines^a | ^a Compounds were administered as single doses of 0.2 mmol/kg in 0.1 | ml of 1% (carboxymethyl)cellulose by oral gavage to female Balb/c mice | weighing approximately 20 g. Food was withheld for 18 h prior to the star | of the experiment. Blood was collected by cardiac puncture using | heparinised syringes 15, 60 and 180 min after dosing. Equal volumes (0.2 | ml) from three mice were pooled at each time point and 0.6 ml of 16% | trichloroacetic acid was added. After centrifugation, 0.5 ml of | supernatent was added to 0.1 ml of saturated aqueous NaHCO3 followed | by the addition of 0.6 ml of 0.4M NH4 OAc (pH 6.0) and the mixture | analysed by HPLC. | ^b 9-Alkoxypurine concentrations <2 μM were detected in the blood | 180 min after dosing.

Data set [2] in a line: Further evaluation of BRL55792 as oral prodrug of BRL44385: AUC in blood of squirrel monkeys (Table 2). Conditions: 110 umol/kg, squirrel monkey, single oral dose 0.11 mmol/kg, 0-8 h, 3 animals. Format: in vivo. The procedure:
|Further evaluation of BRL55792 as a potential oral prodrug of BRL44385 in |rats and squirrel monkeys | ^a Compounds were administered as a single oral dose at either 0.2 | mmol/kg (equivalent to 44.5 mg/kg free BRL44385) to rats with an | indwelling aortic cannula or 0.11 mmol/kg (equivalent to 25 mg/kg free | BRL44385) to squirrel monkeys. Sequential blood samples were collected up | to 8 h after compound administration. Following treatment as described in | table 1, the samples were assayed for BRL55792, BRL44385 and intermediate | matabolites. | ^b Mean areaunder-the-curve values were calculated from blood | concentrationtime profiles from 3 animals by the trapezoidal rule (0-6 h | for rats and 0-8 h for squirrel monkeys). | ^c AUC of BRL44385 from prodrug/AUC of BRL44385 from oral BRL44385

Consider `Nc1nc(O)c2ncn(OCCCO)c2n1` [Example E1, 9-(3-hydroxyprop-1-oxy)guanine], for which the concentration at 0.25 h in data set [1] (15 min, read-out: Concn in blood at time (min) after dosing: total 9-alkoxypurines, 15) was 8.9 µM. Besides, the concentration at 1 h in data set [1] (60 min, read-out: Concn in blood at time (min) after dosing: total 9-alkoxypurines, 60) came to 4 µM. In data set [2] (analyte BRL44385, read-out: Mean Area-under-the-curve ± SEM for BRL 44385), the AUC at 8 h amounted to 13 ± 2.4 µM·h.
Take `CC(C)OCOCCCOn1cnc2cnc(N)nc21` [Example 1, 2-Amino-9-[3-(isopropoxymethoxy)propoxy)purine]: in data set [2] (analyte BRL55792, read-out: Mean Area-under-the-curve ± SEM for BRL 55792), the AUC at 8 h stood at 13 ± 5.7 µM·h.

Source of the values: patent publication US5252575A, “Antiviral purine derivatives with improved gastrointestinal absorption” (Beecham Group p.l.c., priority 1992, dated 1993).
